These results are taken from patent US10639296B2, “Methods to mitigate injury from radiation exposure” (priority 2009, dated 2020).

The test system of series [1] is mice. Conditions: total body dose of 8 Gy; Mozobil I.P. 5 mg/kg single injection days later. As to the method: We exposed mice to radiation, total body dose of 8 Gy at a rate of approximately 1 Gy per minute. Subsequently, days later, we administered Mozobil [I.P.] at 5 mg/kg dose as a single injection. We monitored the test mice for lethality.
Series [2] concerns C57BL/6 mice. Conditions: for cutaneous injury (skin reaction): 5 mg/kg I.P. twice, one week after radiation and 48 hours later. As to the method:
We exposed the legs of mice to 25 or 30 Gy radiation at a dose rate of approximately 5 Gy per minute. Subsequently, one week later, we administered Mozobil [LP.] at 5 mg/kg dose followed by another Mozobil administration [5 mg/kg, I.P.] 48 hours later. We monitored the test mice for lesions relating to skin damage.
Skin damage to the hind leg of C57BL/6 mice was measured using a semi-quantitative scale (TABLE ONE).

Series [3] has as its system TGF-beta. Conditions: 30 days after 30 Gy; 5 mg/kg I.P. on day 7 and 9 post-irradiation; vs 30 Gy alone. From the text: (§1) Cytokine concentrations were from multiple samples, n=3 or 4 from single mice: one control, one receiving radiation alone and one receiving combined drug and radiation.
In series [4] the test system is TNF-alpha. Conditions: 30 days after 30 Gy; 5 mg/kg I.P. on day 7 and 9 post-irradiation; vs 30 Gy alone.
Source text: as §1

The test system of series [5] is C57BL/6 mice. Conditions: for Median survival: 5 mg/kg I.P.
The subject of series [6] is C57BL/6 mice. Conditions: 6.5 Gy TBI; 5 mg/kg 72 h after the radiation; 12 days after radiation exposure; n=8.
Series [7] has as its system Balb/c mice. Conditions: 5 mg/kg i.p. 24 hours after 7 Gy.
Series [8] concerns mice. Conditions: data not shown.
The subject of series [9] is dogs. Conditions: cited from earlier work.
The conditions of series [10]: rapid peak and subsequent clearance; cited from earlier work.
Series [11] concerns hematopoietic stem cells. Conditions: cited from earlier work.
The subject of series [12] is normal donors. Conditions: cited from earlier work.
[13] abbreviates: dogs after lethal dose of TBI, AMD-3100 mobilized peripheral blood mononuclear cells.

Molecules are shown by their SMILES. Read-outs that look alike come from different tables or passages of the source.

On to `c1cc(CN2CCCNCCNCCCNCC2)ccc1CN1CCCNCCNCCCNCC1` [plerixafor], for which the “survival (lethality)” value in series [1] is “significantly enhanced”. Moreover, the “cutaneous injury (skin reaction)” value in series [2] (25 Gy, to day 60) is “soon resolved completely”; in [2] (30 Gy, approximately day 60), “had some hair loss but were otherwise normal”. Moreover, in series [2] (legs, 25 or 30 Gy, 5 mg/kg one week later and again 5 mg/kg I.P. 48 hours later), the “skin damage (lesions)” value is reported as “significantly reduced”. Besides, in series [3], the “TGF-beta in irradiated skin” value was “significantly reduced”. In addition, the “TNF-alpha in irradiated skin” value in series [4] is “significantly reduced”. The “Survival at 30 days” value in series [5] (5 mg/kg I.P. administered 24 h after radiation exposure) was 0%; in series [5] (5 mg/kg I.P. administered 48 h after radiation exposure), 14%; in [5] (5 mg/kg I.P. administered 72 h after radiation exposure), 69%. For the same compound, the Median survival in [5] (48 h between radiation and drug) was 18 days; in series [5] (72 h between radiation and drug), > 30 days; in [7], 18 days. For the same compound, in series [5] (given after total body irradiation), the “mitigation from TBI-induced lethality” value is recorded as “significant mitigation”. For the same compound, the “number of endogenous spleen colonies (mean)” value in series [6] stood at 47±9. For the same compound, in series [8], the “Leg contraction (percent leg extension relative to the unirradiated leg)” value is given as “significantly improved”. The “tolerability (adverse effects)” value in [9] (dog, in vivo) is “well tolerated without noticeable adverse effects”. Also, the “Median days to neutrophil recovery” value in series [9] (setting [13]) was 9 days. Also, the “Median days to platelet recovery” value in series [9] (setting [13]) is 25 days. For the same compound, in [9] (dogs), the “lethality after total body irradiation” value is listed as “mitigates lethality”. Further, the “clearance of the drug after injection” value in series [10] is reported as ≤ 24 h. Also, the “mobilization of hematopoietic stem cells from the bone marrow to the bloodstream” value in [11] (mice, dogs, and humans) is “strong inducer”. The “G-CSF-induced mobilization of HPCs” value in series [11] (mouse and human hematopoietic progenitor cells) is given as “synergistically augmented”. Besides, the “side effects of single-dose administration” value in [12] is recorded as “very minor”.
